Earlier results as cited in US20020131987A1, “METHOD FOR ENHANCING STABLE CELLULAR CREATINE CONCENTRATION” (priority 1997, published 2002).

What was measured:
[1] = not given; remark: listed apart in the source
[2] = not given; remark: listed apart in the source
[3] = not given; remark: listed apart in the source
[4] = not given; remark: listed apart in the source

CN(CC(=O)O)C(=N)N.O [creatine monohydrate]
formation of creatinine in aqueous solution (dissolved in an aqueous solution): creatinine is formed | volume of alcohol in which one gram dissolves ([1]; alcohol): about 9 liters | volume of water in which one gram dissolves ([1]; water): 75 mL | reaction to litmus [2]: neutral

CN(CC(=O)O)C(=N)N [creatine]
formation of creatinine in acid solution (acid solution): complete | time for conversion of creatine to creatinine (acidic aqueous solution): a number of hours | creatine lost from the cell ([3]; 70 kg male): approximately 2 grams per day | loss of creatine from skeletal muscle ([3]; human skeletal muscle): about 3 % per day | decomposition in the alimentary tract ([4]; after oral administration, no appreciable increase in urinary urea or ammonia): not decomposed | absorption from the alimentary tract ([4]; oral administration): completely absorbed
